Measured values as given in patent US20260049068A1, “Substituted Tetrazolyl Compounds Useful as T Cell Activators” (BRISTOL-MYERS SQUIBB COMPANY, priority 2022, published 2026).

molecular target: Full length human DGKα (Homo sapiens (Human), UniProt P23743)
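Also: ADP-Glo luminescence assay of ADP formed by 5 nM full-length DGKα on extruded PS/DAG/PC liposomes with 150 µM ATP, 1 h reaction, 11-point inhibitor titration.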
Procedure: The DGKα (Full Length and Near Full Length) ADP Glo assays were performed using an extruded liposome prep at either 5% DAG or 10% DAG. The Enzymatic reactions were carried out in 50 mM MOPS pH 7.5, 100 mM NaCl, 10 mM MgCl2, 1 μM CaCl2, and 1 mM DTT (assay buffer). The lipid substrate concentrations were 1.9 mM PS, either 0.25 mM DAG (5% liposome prep) or 0.5 mM DAG (10% liposome prep), and 2.7 mM PC for the extruded liposome reactions. The reactions were carried out at 150 μM ATP. The enzyme concentrations for the DGKα(Near Full Length) and DGKα(FL) were 5 nM.
The compound inhibition studies were carried out as follows: 25 nL droplets of each test compound (11 point, 3-fold dilution series for each compound) solubilized in DMSO were transferred to wells of a white 1536 well plate (Corning 3725). A 5 mL enzyme/substrate (substrate being the 5× or 10× liposome preparation) solution at 2× final reaction concentrations was prepared by combining 5 ml of the extruded liposome preparation with 10 nM (2× final) DGKα(Near Full Length) or DGKα(Full Length) prepared as described below) and incubated at room temperature for 10 minutes. Next, 1 μL of the 2× enzyme/substrate solution was added to wells containing the test compound and reactions were initiated with the addition of 1 μL 300 uM ATP. Substrate only was added to DMSO only wells for background measurements. The reactions were allowed to proceed for 1 hr, after which 2 μL Glo Reagent (Promega V9101) was added and incubated for 40 minutes. Next, 4 μL Kinase Detection Reagent was added and incubated for 30 minutes. Luminescence was recorded using an EnVision microplate reader. […] The compounds were evaluated at 11 concentrations to determine IC50.

Chain of Full length human DGKα (P23743 other isoform, or with tags, fused parts or gaps): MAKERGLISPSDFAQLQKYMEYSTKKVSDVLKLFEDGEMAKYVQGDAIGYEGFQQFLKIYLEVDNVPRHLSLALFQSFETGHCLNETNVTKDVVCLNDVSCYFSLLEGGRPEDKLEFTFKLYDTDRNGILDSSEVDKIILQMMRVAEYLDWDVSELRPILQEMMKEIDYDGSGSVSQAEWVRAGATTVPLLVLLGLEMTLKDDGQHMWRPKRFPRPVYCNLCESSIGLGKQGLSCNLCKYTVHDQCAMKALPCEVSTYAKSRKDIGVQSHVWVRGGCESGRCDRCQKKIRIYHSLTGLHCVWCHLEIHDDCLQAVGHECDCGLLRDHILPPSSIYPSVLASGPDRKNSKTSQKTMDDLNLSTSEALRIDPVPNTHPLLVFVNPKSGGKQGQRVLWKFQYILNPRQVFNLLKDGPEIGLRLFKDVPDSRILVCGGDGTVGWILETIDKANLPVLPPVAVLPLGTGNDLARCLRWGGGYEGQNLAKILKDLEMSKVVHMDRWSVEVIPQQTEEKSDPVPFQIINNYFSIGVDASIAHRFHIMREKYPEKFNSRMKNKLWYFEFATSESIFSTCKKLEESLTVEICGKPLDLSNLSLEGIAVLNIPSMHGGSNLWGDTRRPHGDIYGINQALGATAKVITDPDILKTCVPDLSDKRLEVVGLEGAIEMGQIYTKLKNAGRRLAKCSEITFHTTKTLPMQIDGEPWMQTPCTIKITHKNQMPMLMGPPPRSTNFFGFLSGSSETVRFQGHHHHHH

Going from `COc1ccc(-n2nnnc2CN(C)C2CCCCC2)cc1` [Example 31, N-((1-(4-methoxyphenyl)-1H-tetrazol-5-yl)methyl)-N-methylcyclohexanamine] to `CN(Cc1nnnn1-c1ccc([N+](=O)[O-])cc1)C1CCCCC1` [Example 32, N-methyl-N-((1-(4-nitrophenyl)-1H-tetrazol-5-yl)methyl)cyclohexanamine], the IC50 falls from 56 µM to 13 µM (4.3-fold).

`COC(=O)c1cccc(-n2nnnc2CN(C)C2CCCCC2)c1` [Example 33, methyl 3-(5-((cyclohexyl(methyl)amino)methyl)-1H-tetrazol-1-yl)benzoate] and `CN(Cc1nnnn1-c1cccc(C(=O)O)c1)C1CCCCC1` [Example 34, 3-(5-((cyclohexyl (methyl)amino)methyl)-1H-tetrazol-1-yl)benzoic acid] cannot be ordered by IC50: > 240 µM for the first, > 81 µM for the second.

Compared with `Cc1cccc(-n2nnnc2CN(C)C2CCCCC2)c1` [Example 35, N-methyl-N-((1-(m-tolyl)-1H-tetrazol-5-yl)methyl)cyclohexanamine], `CN(Cc1nnnn1-c1cccc(Cl)c1)C1CCCCC1` [Example 36, N-((1-(3-chlorophenyl)-1H-tetrazol-5-yl)methyl)-N-methylcyclohexanamine] is 4.5-fold lower in IC50: 50 µM for the first, 11 µM for the second. The second is the more potent here.

Going from `O=[N+]([O-])c1cccc(-n2nnnc2CN(CCO)C2CCCCC2)c1` [Example 43, 2-(cyclohexyl((1-(3-nitrophenyl)-1H-tetrazol-5-yl)methyl)amino)ethan-1-ol] to `CN(Cc1nnnn1-c1cccc(Br)c1)C1CCCCC1` [Example 45, N-((1-(3-bromophenyl)-1H-tetrazol-5-yl)methyl)-N-methylcyclohexanamine], the IC50 falls from 72 µM to 12 µM (6-fold). The second is the more potent here.

`CN(Cc1nnnn1-c1ccc(F)nc1)C1CCCCC1` [Example 46, N-((1-(6-fluoropyridin-3-yl)-1H-tetrazol-5-yl)methyl)-N-methylcyclohexanamine] and `CN(Cc1nnnn1-c1ccc(Cl)c(C(F)(F)F)c1)C1CCCCC1` [Example 49, N-((1-(4-chloro-3-(trifluoromethyl)phenyl)-1H-tetrazol-5-yl)methyl)-N-methylcyclohexanamine] are within 1.5-fold of each other in IC50: 16 µM for the first, 17 µM for the second.

`CN(Cc1nnnn1-c1cc(C#N)c(=O)n(C)c1)C1CCCCC1` [Example 48, 5-(5-((cyclohexyl(methyl)amino)methyl)-1H-tetrazol-1-yl)-1-methyl-2-oxo-1,2-dihydropyridine-3-carbonitrile] and `CC(C)N(Cc1nnnn1-c1ccc(Cl)c(C#N)n1)C1CCCCC1` [Example 55, 3-chloro-6-(5-((cyclohexyl(isopropyl)amino)methyl)-1H-tetrazol-1-yl)picolinonitrile] are within 1.5-fold of each other in IC50: 56 µM for the first, 46 µM for the second.

Compared with `CC1CCC(C)N1Cc1nnnn1-c1ccc(Cl)c(C#N)c1` (centres unmarked) [Example 50, 2-chloro-5-(5-((2,5-dimethylpyrrolidin-1-yl)methyl)-1H-tetrazol-1-yl)benzonitrile], `CCOC(=O)C1CCC(N(Cc2nnnn2-c2ccc(Cl)c(C#N)c2)C2CC2)CC1` (centres unmarked) [Example 51, ethyl 4-(((1-(4-chloro-3-cyanophenyl)-1H-tetrazol-5-yl)methyl)(cyclopropyl)amino) cyclohexane-1-carboxylate] is 4.2-fold lower in IC50: 54 µM for the first, 13 µM for the second. The second is the more potent here.

First: N#Cc1cc(-n2nnnc2CN(CC(O)c2ccccc2)C2CCCCC2)ccc1Cl (centres unmarked) [Example 52, 2-chloro-5-(5-((cyclohexyl(2-hydroxy-2-phenylethyl)amino)methyl)-1H-tetrazol-1-yl)benzonitrile]
Second: N#Cc1nc(-n2nnnc2CN(CCCNC(=O)c2ccccc2)C2CCCCC2)ccc1Cl [Example 54, N-(3-(((1-(5-chloro-6-cyanopyridin-2-yl)-1H-tetrazol-5-yl)methyl)(cyclohexyl)amino)propyl)benzamide]
The IC50 of the first is 6.4-fold lower: 11 µM for the first, 70 µM for the second.

In the case of `CCCN(Cc1nnnn1-c1ccc(Cl)c(C#N)n1)C1CCCCC1` [Example 53, 3-chloro-6-(5-((cyclohexyl(propyl)amino)methyl)-1H-tetrazol-1-yl)picolinonitrile], the IC50 is reported as 15 µM.
